Assay results from patent publication US20230172925A1, “SKIN-CARE COMPOSITIONS AND USES THEREOF” (AHAVA - DEAD SEA LABORATORIES LTD., priority 2019, published 2023).
“Also recorded” adds a separate entry of the source.

Legend:
IL-1α [1] = assay: Human skin organ culture without UVB stressor, IL-1α secretion; format: cell-based; conditions: no UVB; Retinol 1.0%; 48, 72 and 96 hours
Method: (§1) Topical Exposure Till 96 Hours without External UVB Radiation as Stressor on Human Skin Model
(§2) Day 1: Topical application of 3 μl of each solution on the epidermis of each skin explant. Incubate for 24 hours. (SDS Irritation control: topical application of 3 ul SDS 10% was applied on the skin model at day 1 only. The rest of the days samples were untouched).
(§3) Day 2: Topical application of 3 μl of each solution on the epidermis of each skin explant. Incubate for 24 hours in fresh medium (medium was not collected). (UVB control: after 24 hours incubation with 3 μl H2O skin was irradiated with 200 mJ/cm2 UVB. The rest of the experiment days sample were topically applied with H2O, as control).
(§4) Day 3: Topical application of 3 μl of each solution on the epidermis of each skin explant. Incubate for 24 hours in fresh medium (medium was collected)—48 hours of total topical incubation.
(§5) Day 4: Topical application of 3 μl of each solution on the epidermis of each skin explant. Incubate for 24 hours in fresh medium (medium was collected)—72 hours of total topical incubation.
(§6) Day 5: Topical application of 3 μl of each solution on the epidermis of each skin explant. Incubate for 24 hours in fresh medium (medium was collected)—96 hours of total topical incubation. MTT assay was performed.
FIG. 9A illustrates the IL-1α secretion results in the medium. In FIG. 9A the IL-1α secretion of the H2O sample was used as a control (9.0±0.7 pg/ml […]) for each time point. FIG. 9B is a magnification of FIG. 9A.

[2] = tested on: human skin explants (epidermis); assay: Human skin organ culture with UVB stressor, viability by MTT assay; format: cell-based; conditions: UVB 200 mJ/cm2, topical 3 μl before and after irradiation, 48 hours in total; compared to irradiated control
Method: (§7) Topical exposure till 48 hours in total (24 hr recovery following topical application+24 hr after exposure to UVB irradiation) with UVB radiation as stressor on human skin model
(§8) The following general procedure was used in the study:
(§9) Day 1: Topical application of 3 μl of each sample solution on the epidermis of each skin explant. Incubate for 24 hours. SDS 10% was applied only once, and was not farther irradiated with UVB.
(§10) Day 2: Skin explants were washed once with PBS and irradiated with UVB lamp at 200 mJ/cm2. After radiation it was incubated for 30 min and then topically apply each treatment (sample solution) again. Control was not irradiated under UVB light. UVB radiated control was without any treatment except radiation.
(§11) Day 3: Viability and Caspase3 activity were measured for the epidermis layer. The medium was collected for cytokines test.
FIG. 2 illustrates a flow diagram of topical exposure/treatment till 48 hours, 24 hr recovery following topical application +24 hr after exposure to UVB irradiation) with UVB radiation as stressor on human skin model experiment. In the Experiment the SDS irritation control sample was a skin explant that was topical applied with 3 μl SDS 10% solution at day 1 only.
The viability of the various skin explants was measured by the 5-dimethylthiazol-2-yl]-2,5-diphenyl tetrazolium bromide (MTT) assay.

TNFα [3] = assay: Human skin organ culture without UVB stressor, TNFα secretion; format: cell-based; conditions: no UVB
Method: as §1, §2, §3, §4, §5, §6
FIG. 8 illustrates the TNFα secretion tested results. In FIG. 8 the TNFα secretion of the H2O sample was used as a control (0.35±0.05 pg/ml) for each time point.

skin equivalents = assay: DNA microarray gene expression in skin equivalents, comparative with 3D complex and Retinol (Example 6); format: cell-based, human; conditions: Retinol 5 μM
Method: In the present study the biological activity on gene expression of the pRETINOL complex was compared to the activity of a composition which was previously described in [13] and [14] and referred to herein as 3D complex. The activity was further compared to that observed with Retinol (5 μM of Retinol in double distilled water).
On each array, treated vs. untreated samples were compared. Each array was processed and the data from all arrays was normalized to get the average expression and log fold change (log FC) for each gene on each array.
An analysis of full human genome was performed.
Further to the above analysis, similar to the study presented in Example 5, major skin related pathways were selected from KEGG and wiki pathways list and the p-value and z-score were calculated for these pathways.

TNFα [4] = assay: Human skin organ culture with UVB stressor, TNFα secretion in the medium; format: cell-based; conditions: UVB
Method: as §7, §8, §9, §10, §11
FIG. 4 illustrates the TNFα secretion results in the medium as observed with 2 to 4 repetition of the tests. In FIG. 4 the TNFα secretion of the irradiated sample “UVB” was selected as 100% and it equals 53±30 pg/ml.

[5] = tested on: human skin explants (epidermis); assay: Human skin organ culture without UVB stressor, topical exposure till 96 hours, viability by MTT assay; format: cell-based; conditions: no UVB; 96 hours of topical application; vs control
Method: as §1, §2, §3, §4, §5
Day 5: Topical application of 3 μl of each solution on the epidermis of each skin explant. Incubate for 24 hours in fresh medium (medium was collected)—96 hours of total topical incubation. MTT assay was performed. […]
The viability of the various skin explants was measured by the MTT assay.

IL-1α [6] = assay: Human skin organ culture with UVB stressor, IL-1α secretion in the medium; format: cell-based; conditions: UVB
Method: as §7, §8, §9, §10, §11
FIG. 5 illustrates the IL-1α secretion results in the medium as observed with 3 to 4 repetition of the tests. In FIG. 5 the IL-1α secretion of the irradiated sample “UVB” was selected as 100% and it equals 8.1±1.0 pg/ml.

[7] = tested on: human primary fibroblasts; assay: Hyaluronic acid production assay (ELISA); format: cell-based; conditions: Retinol 1.0 μM in the culture media; 48 hours
Method: The human primary fibroblast cell culture was grown at an 80% confluence in Dulbecco's Modified Eagle's High glucose (Hg) medium (DMEM) culture medium containing 10% fetal bovine serum, 100 U/ml penicillin, and 100 U/ml streptomycin. The cells were cultivated in 6 wells plates.
The pRetinol complex was added at a final concentrations of. Osmoter 0.2%, Dunaliella salina extract 1.2%, Niacinimide 0.04% and 6.24 ppm of β-Carotene i.e., 2.5 times dilution (the dilution was necessary in view of the human primary fibroblast cells culture being more sensitive than skin full organ culture). Retinol was added to the medium at a final concentration of 1.0 μM.
The cells were incubated at 37° C., 5% CO2 at a 100% RH for 48 hours. After incubation the cells were extracted using RIPA buffer collected to a blending Eppendorf and ground using stain steal beads and a bullet blender for 5 min. The samples were centrifuged for 15 min at 5000 rpm and the supernatant was collected.
BCA Protein concentration assay were performed on all the samples. The protein level for all samples was dilated to reach a concentration of 0.1 ng/ml of protein, diluted with PBS. Samples contain a protein concentration of 0.1 ng/ml were tested for hyaluronic ELISA assay kit (R&D systems, ELISA kit). Results were obtained as ng/ml of hyaluronic acid per 1 μg of protein. […]

In the case of `CC1=C(/C=C/C(C)=C/C=C/C(C)=C/CO)C(C)(C)CCC1` [Retinol], the IL-1α secretion (IL-1α [1]) is reported as “increased; also recorded: caused an increase”, the “viability (MTT, mitochondrial activity) of epidermis” value [2] is reported as “increased mitochondrial activity” and the TNFα secretion (TNFα [3]; Retinol 0.5%, after incubation of 72 hours, H2O control 0.35±0.05 pg/ml) is reported as “below the detection level”. The TNFα secretion (TNFα [3]; Retinol 1.0%, after incubation of 72 hours, H2O control 0.35±0.05 pg/ml) was “below the detection level”, the TNFα secretion (TNFα [3]; Retinol for 48, 72 and 96 hours, reduction also observed with ethanol only) was “caused a reduction” and the z-score (skin equivalents; KEGG_APOPTOSIS) was 1.0758. It also gave a z-score (skin equivalents; KEGG_BASE_EXCISION_REPAIR) of −0.2818, a z-score (skin equivalents; KEGG_NF_KAPPA_B_SIGNALING_PATHWAY) of −0.4673 and a z-score (skin equivalents; KEGG_NOD-LIKE_RECEPTOR SIGNALING PATHWAY) of −0.3502. It also gave a z-score (skin equivalents; KEGG_SPHINGOLIPID_METABOLISM) of −0.6417, a z-score (skin equivalents; KEGG_TNF_SIGNALING_PATHWAY) of −1.1097 and a z-score (skin equivalents; KEGG_YERSINIA_INFECTION) of 1.5054. The z-score (skin equivalents; WIKI_KERATINIZATION) was 10.548, the “reduction of TNFα secretion compared to the irradiated sample” value (TNFα [4]; Retinol 0.5% (w/w) in EtOH) was 56% and the “reduction of TNFα secretion compared to the irradiated sample” value (TNFα [4]; Retinol 1.0% (w/w) in EtOH) was 45%. The “viability (MTT, mitochondrial activity) of skin explants” value [5] was “did not cause increase or reduction of viability”, the “increase of IL-1α secretion” value (IL-1α [6]; Retinol 0.05% (w/w) in EtOH) was 83% and the “increase of IL-1α secretion” value (IL-1α [6]; Retinol 0.5% (w/w) in EtOH) was 50%. For the same compound, the “increase of IL-1α secretion” value (IL-1α [6]; Retinol 1.0% (w/w) in EtOH) was 53% and the “production of hyaluronic acid compared to the control sample” value [7] was “induce the production of hyaluronic acid”.
